Source: ChEMBL document CHEMBL4340527, “Discovery of potent anti-inflammatory 4-(4,5,6,7-tetrahydrofuro[3,2-c]pyridin-2-yl) pyrimidin-2-amines for use as Janus kinase inhibitors” (Bioorg Med Chem, 2019)
pIC50: −log10 of the molar value.

Columns and labels:
[1] = molecular target: T1, Tyrosine-protein kinase JAK3 (Homo sapiens, UniProt P52333)
T1 sequence (P52333 whole entry): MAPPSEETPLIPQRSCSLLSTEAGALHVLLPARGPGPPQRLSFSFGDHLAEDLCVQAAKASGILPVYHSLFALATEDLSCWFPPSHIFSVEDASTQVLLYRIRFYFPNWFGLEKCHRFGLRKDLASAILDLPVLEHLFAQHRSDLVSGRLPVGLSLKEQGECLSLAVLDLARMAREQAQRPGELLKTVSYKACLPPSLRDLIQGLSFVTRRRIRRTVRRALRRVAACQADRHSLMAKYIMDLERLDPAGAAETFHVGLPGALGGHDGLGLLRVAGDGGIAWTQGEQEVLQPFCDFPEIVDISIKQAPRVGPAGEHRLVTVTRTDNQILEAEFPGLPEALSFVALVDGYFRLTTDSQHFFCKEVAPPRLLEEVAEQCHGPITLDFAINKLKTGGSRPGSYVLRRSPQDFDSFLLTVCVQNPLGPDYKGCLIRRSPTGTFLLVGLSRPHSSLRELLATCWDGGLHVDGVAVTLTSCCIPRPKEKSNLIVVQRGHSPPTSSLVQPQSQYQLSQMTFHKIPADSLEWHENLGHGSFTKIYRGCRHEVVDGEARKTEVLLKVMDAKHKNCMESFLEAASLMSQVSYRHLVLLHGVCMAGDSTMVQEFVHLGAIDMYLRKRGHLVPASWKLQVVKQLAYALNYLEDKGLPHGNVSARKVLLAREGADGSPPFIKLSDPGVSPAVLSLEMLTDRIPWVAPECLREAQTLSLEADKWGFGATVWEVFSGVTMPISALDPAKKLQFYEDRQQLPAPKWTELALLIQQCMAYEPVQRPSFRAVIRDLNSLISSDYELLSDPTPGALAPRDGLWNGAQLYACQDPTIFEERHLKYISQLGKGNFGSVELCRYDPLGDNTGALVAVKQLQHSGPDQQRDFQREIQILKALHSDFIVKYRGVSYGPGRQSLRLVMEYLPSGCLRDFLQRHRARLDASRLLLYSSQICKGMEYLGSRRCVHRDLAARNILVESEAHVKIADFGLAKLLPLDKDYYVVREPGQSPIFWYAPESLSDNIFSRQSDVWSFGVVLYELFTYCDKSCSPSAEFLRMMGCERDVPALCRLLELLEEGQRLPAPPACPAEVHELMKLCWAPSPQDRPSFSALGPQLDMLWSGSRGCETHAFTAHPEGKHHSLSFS
Description: Inhibition of JAK3 (unknown origin) using TK-substrate-biotin as substrate preincubated for 5 mins followed by substrate addition and measured by 30 mins by HTRF assay

[2] = molecular target: Tyrosine-protein kinase JAK2 (Homo sapiens, UniProt O60674)
Chain of Tyrosine-protein kinase JAK2 (O60674 whole entry): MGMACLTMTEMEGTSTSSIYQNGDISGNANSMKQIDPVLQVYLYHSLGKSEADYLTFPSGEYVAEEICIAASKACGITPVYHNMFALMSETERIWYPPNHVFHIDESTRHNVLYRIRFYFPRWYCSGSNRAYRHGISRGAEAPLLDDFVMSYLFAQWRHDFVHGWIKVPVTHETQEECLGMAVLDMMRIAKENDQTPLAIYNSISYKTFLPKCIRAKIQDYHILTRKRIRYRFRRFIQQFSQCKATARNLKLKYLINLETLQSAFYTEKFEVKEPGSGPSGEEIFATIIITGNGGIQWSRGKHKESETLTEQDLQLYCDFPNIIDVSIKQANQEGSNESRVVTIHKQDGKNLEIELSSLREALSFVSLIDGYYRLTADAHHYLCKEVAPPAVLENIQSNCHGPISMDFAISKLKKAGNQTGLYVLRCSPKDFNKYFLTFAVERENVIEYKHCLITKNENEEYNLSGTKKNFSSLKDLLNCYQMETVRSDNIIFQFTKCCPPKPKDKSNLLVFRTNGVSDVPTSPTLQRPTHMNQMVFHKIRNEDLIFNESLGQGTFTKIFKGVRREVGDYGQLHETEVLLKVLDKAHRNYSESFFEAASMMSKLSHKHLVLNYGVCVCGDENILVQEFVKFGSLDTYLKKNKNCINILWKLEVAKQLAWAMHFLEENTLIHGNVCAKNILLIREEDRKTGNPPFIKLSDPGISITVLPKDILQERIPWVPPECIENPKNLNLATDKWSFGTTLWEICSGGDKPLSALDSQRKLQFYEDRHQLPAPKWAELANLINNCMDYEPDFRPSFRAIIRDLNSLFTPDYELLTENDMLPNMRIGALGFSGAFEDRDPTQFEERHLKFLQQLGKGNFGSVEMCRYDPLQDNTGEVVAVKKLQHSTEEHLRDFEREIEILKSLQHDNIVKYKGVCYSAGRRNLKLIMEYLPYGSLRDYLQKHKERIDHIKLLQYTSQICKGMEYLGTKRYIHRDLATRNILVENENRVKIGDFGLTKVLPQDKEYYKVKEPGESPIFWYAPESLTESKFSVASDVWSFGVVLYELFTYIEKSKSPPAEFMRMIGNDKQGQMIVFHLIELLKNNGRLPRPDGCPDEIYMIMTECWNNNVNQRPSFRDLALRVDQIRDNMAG
Description: Inhibition of JAK2 (unknown origin) using TK-substrate-biotin as substrate preincubated for 5 mins followed by substrate addition and measured by 30 mins by HTRF assay

[3] = tested on: Rattus norvegicus; format: functional
[4] = in vivo; conditions: Sprague-Dawley, rat, po, 10 mg/kg
[5] = Volume of distribution in Sprague-Dawley rat at 2.5 mg/kg, iv after 2 mins to 24 hrs by LC-MS/MS analysis; format: ADME, organism-based; conditions: in vivo, read-out: Vz
[6] = in vivo; conditions: Sprague-Dawley, rat, po, 10 mg/kg; remark: listed apart in the source
[7] = molecular target: Voltage-gated inwardly rectifying potassium channel KCNH2 (Homo sapiens, UniProt Q12809); assay: Inhibition of human ERG
Chain of Voltage-gated inwardly rectifying potassium channel KCNH2 (Q12809 whole entry): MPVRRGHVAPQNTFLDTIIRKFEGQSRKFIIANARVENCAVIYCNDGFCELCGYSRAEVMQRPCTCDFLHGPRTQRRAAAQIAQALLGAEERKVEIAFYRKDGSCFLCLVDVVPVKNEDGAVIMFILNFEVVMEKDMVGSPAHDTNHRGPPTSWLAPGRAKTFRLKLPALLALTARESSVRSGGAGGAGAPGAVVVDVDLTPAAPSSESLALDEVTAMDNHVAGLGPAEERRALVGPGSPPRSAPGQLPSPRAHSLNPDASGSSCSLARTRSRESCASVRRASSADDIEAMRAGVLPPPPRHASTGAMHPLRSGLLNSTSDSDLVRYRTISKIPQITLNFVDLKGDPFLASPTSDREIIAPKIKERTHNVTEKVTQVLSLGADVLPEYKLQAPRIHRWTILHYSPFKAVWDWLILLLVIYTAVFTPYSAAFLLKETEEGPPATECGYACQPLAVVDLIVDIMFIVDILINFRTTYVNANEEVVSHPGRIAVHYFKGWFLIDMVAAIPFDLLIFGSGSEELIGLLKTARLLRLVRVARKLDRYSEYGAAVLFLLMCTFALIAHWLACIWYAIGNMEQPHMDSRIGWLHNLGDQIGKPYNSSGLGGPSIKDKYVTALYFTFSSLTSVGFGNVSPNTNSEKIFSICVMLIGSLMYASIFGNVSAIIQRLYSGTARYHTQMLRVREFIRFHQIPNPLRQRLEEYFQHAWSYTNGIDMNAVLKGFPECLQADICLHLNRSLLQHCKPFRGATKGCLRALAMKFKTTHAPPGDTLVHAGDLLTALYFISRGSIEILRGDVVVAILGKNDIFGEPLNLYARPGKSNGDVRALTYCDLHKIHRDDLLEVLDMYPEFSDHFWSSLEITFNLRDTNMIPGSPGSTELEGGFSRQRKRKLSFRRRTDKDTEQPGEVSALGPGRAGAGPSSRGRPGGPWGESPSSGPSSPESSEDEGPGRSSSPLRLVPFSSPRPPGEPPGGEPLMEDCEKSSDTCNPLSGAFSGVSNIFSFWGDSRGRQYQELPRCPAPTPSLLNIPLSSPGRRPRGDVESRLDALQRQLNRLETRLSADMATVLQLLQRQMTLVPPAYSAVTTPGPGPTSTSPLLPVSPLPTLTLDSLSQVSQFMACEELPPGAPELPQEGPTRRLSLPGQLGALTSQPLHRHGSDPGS

[8] = AUC (0 to t) in Sprague-Dawley rat at 2.5 mg/kg, iv after 2 mins to 24 hrs by LC-MS/MS analysis; format: ADME, organism-based; design: time 0.033-24 hr, dose 2.5 mg/kg, route intravenous; conditions: in vivo
[9] = molecular target: T2, hERG (KCNH2) (Homo sapiens, UniProt Q12809); assay: Inhibition of human ERG at 30 uM relative to control
T2 sequence (Q12809 whole entry): as above

[10] = molecular target: T2, hERG (KCNH2); assay: Inhibition of human ERG at 3 uM relative to control
[11] = Oral bioavailability in Sprague-Dawley rat at 10 mg/kg after 2 mins to 24 hrs by LC-MS/MS analysis; format: ADME, organism-based; conditions: in vivo
[12] = Cmax in Sprague-Dawley rat at 2.5 mg/kg, iv after 2 mins to 24 hrs by LC-MS/MS analysis; format: ADME, organism-based; design: dose 2.5 mg/kg, route intravenous; conditions: in vivo
[13] = molecular target: Tyrosine-protein kinase JAK1 (Homo sapiens, UniProt P23458)
Description: Inhibition of JAK1 (unknown origin) using TK-substrate-biotin as substrate preincubated for 5 mins followed by substrate addition and measured by 30 mins by HTRF assay

[14] = in vivo; conditions: Sprague-Dawley, rat, po, 10 mg/kg; remark: listed apart in the source
[15] = Clearance in Sprague-Dawley rat at 2.5 mg/kg, iv after 2 mins to 24 hrs by LC-MS/MS analysis; format: ADME, organism-based; conditions: in vivo
[16] = molecular target: T2, hERG (KCNH2); assay: Inhibition of human ERG at 0.3 uM relative to control
[17] = in vivo; conditions: Sprague-Dawley, rat, po, 10 mg/kg; remark: listed apart in the source
[18] = molecular target: Non-receptor tyrosine-protein kinase TYK2 (Homo sapiens, UniProt P29597)
Chain of Non-receptor tyrosine-protein kinase TYK2 (P29597 whole entry): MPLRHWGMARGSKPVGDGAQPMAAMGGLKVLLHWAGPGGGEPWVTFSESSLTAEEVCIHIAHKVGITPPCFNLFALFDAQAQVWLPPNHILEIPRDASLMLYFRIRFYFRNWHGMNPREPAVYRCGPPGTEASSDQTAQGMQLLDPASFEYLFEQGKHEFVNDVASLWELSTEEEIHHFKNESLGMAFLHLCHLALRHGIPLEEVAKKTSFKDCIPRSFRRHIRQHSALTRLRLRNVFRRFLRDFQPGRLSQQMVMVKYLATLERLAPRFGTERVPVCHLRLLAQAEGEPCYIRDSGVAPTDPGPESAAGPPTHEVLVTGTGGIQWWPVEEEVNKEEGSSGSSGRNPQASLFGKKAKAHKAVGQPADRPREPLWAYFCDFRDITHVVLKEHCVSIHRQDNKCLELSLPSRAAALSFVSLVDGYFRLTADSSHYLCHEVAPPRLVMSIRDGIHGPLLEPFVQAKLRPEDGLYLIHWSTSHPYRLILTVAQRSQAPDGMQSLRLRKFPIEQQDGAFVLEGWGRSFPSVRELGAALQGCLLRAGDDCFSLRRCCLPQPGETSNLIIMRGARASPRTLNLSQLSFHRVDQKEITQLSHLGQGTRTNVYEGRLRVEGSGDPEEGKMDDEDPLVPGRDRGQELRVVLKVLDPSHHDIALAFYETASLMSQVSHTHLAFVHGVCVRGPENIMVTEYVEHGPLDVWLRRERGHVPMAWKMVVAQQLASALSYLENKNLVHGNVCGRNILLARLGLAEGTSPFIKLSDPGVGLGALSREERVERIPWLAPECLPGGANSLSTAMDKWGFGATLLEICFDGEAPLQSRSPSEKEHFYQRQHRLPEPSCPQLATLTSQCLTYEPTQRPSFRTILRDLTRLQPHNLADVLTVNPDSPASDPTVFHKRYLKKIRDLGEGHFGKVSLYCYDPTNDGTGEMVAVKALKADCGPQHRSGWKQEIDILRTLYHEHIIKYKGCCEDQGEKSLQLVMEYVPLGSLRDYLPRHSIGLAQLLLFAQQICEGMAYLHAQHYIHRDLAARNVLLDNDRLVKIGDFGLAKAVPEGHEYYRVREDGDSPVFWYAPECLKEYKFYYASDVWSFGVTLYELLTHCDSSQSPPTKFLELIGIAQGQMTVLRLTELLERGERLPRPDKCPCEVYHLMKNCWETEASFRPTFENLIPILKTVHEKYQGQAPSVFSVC
Description: Inhibition of Tyk2 (unknown origin)

[19] = tested on: Rattus norvegicus; format: functional; remark: listed apart in the source
[20] = in vivo; conditions: rat, po, 5 mg/kg
[21] = MRT (0 to t) in Sprague-Dawley rat at 2.5 mg/kg, iv after 2 mins to 24 hrs by LC-MS/MS analysis; format: ADME, organism-based; conditions: in vivo
[22] = in vivo; conditions: Sprague-Dawley, rat, po, 10 mg/kg; remark: listed apart in the source
[23] = Half life in Sprague-Dawley rat at 2.5 mg/kg, iv after 2 mins to 24 hrs by LC-MS/MS analysis; format: ADME, organism-based; conditions: in vivo
[24] = rat, in vivo, po, 10 mg/kg

With COc1cc(Nc2ncc(C)c(-c3cc4c(o3)CCN(C(=O)CC#N)C4)n2)cc(OC)c1OC as the molecule, how does the pIC50 [1] read?
The pIC50 was 7.92.

What about the pIC50 [2] of the same molecule?
Its pIC50 is 8.80.

Which results are given for Cc1cnc(Nc2cc(F)c(N3CCOCC3)c(F)c2)nc1-c1cc2c(o1)CCN(C(=O)CC#N)C2?
pIC50 [1]: 7.06; pIC50 [2]: 8.38

With Cc1cnc(Nc2cccc(N3CCN(C)CC3)c2)nc1-c1cc2c(o1)CCN(S(C)(=O)=O)C2 as the molecule, how does the pIC50 [1] read?
Its pIC50 is 6.12.

And the pIC50 [2]?
Its pIC50 is 6.95.

With Cc1cnc(Nc2ccccc2)nc1-c1cc2c(o1)CCN(S(C)(=O)=O)C2 as the molecule, how does the pIC50 [1] read?
Its pIC50 is 6.82.

And the pIC50 [2]?
Its pIC50 is 8.57.

With Cc1cnc(Nc2cc(F)c(N3CCOCC3)c(F)c2)nc1-c1cc2c(o1)CCN(S(C)(=O)=O)C2 as the molecule, how does the pIC50 [1] read?
The pIC50 was 6.71.

And the pIC50 [2]?
Its pIC50 is 8.43.

With Cc1cnc(Nc2ccc(N3CCOCC3)cc2)nc1-c1cc2c(o1)CCN(C(=O)c1cccc(C#N)c1)C2 as the molecule, how does the pIC50 [1] read?
Its pIC50 is 6.26.

And the pIC50 [2]?
Its pIC50 is 7.45.

With CCC(=O)N1CCc2oc(-c3nc(Nc4ccc(N5CCOCC5)cc4)ncc3C)cc2C1 as the molecule, how does the pIC50 [1] read?
Its pIC50 is 6.95.

And the pIC50 [2]?
The pIC50 was 8.24.

With Cc1cnc(Nc2ccc(-n3ccnc3)cc2)nc1-c1cc2c(o1)CCN(S(C)(=O)=O)C2 as the molecule, how does the pIC50 [1] read?
The pIC50 was 7.04.

What about the pIC50 [2] of the same molecule?
Its pIC50 is 7.97.

With Cc1cnc(Nc2ccc(F)cc2)nc1-c1cc2c(o1)CCN(C(=O)CC#N)C2 as the molecule, how does the pIC50 [1] read?
Its pIC50 is 7.02.

With Cc1cnc(Nc2ccc(OCCN3CCCC3)cc2)nc1-c1cc2c(o1)CCN(S(C)(=O)=O)C2 as the molecule, how does the pIC50 [1] read?
The pIC50 was 7.25.

And the pIC50 [2]?
Its pIC50 is 8.39.

Which results are given for Cc1cnc(Nc2ccc(N3CCN(C)CC3)cc2)nc1-c1cc2c(o1)CCN(C(=O)CC#N)C2?
pIC50 [1]: 7.47; pIC50 [2]: 8.80

With Cc1cnc(Nc2ccc(N3CCOCC3)cc2)nc1-c1cc2c(o1)CCN(C(=O)C(C)C)C2 as the molecule, how does the pIC50 [1] read?
Its pIC50 is 7.49.

What about the pIC50 [2] of the same molecule?
The pIC50 was 8.19.

Which results are given for Cc1cnc(Nc2ccc(N3CCOCC3)cc2)nc1-c1cc2c(o1)CCN(C(=O)c1ccc(C#N)cc1)C2?
pIC50 [1]: 6.37; pIC50 [2]: 7.54

With Cc1cnc(Nc2ccc([N+](=O)[O-])cc2)nc1-c1cc2c(o1)CCN(C(=O)CC#N)C2 as the molecule, how does the pIC50 [1] read?
Its pIC50 is 6.56.

And the pIC50 [2]?
The pIC50 was 7.85.

With Cc1cnc(Nc2ccc(OCCN3CCCC3)cc2)nc1-c1cc2c(o1)CCN(C(=O)CC#N)C2 as the molecule, how does the pIC50 [1] read?
Its pIC50 is 7.28.

What about the pIC50 [2] of the same molecule?
Its pIC50 is 8.02.

What does the source list for Cc1cnc(Nc2ccc(F)cc2)nc1-c1cc2c(o1)CCN(S(C)(=O)=O)C2?
pIC50 [1]: 5.29; pIC50 [2]: 7.92

With Cc1cnc(Nc2ccccc2)nc1-c1cc2c(o1)CCN(C(=O)CC#N)C2 as the molecule, how does the pIC50 [1] read?
The pIC50 was 7.02.

What about the pIC50 [2] of the same molecule?
The pIC50 was 8.54.

With Cc1cnc(Nc2ccc(N3CCOCC3)cc2)nc1-c1cc2c(o1)CCN(C(=O)CC#N)C2 as the molecule, how does the Activity [3] read?
The Activity was 14.1%.

What about the MRT last [4] of the same molecule?
Its MRT last is 3.49 h.

And the Vd [5]?
The Vd was 2 L/kg.

And the CL/F [6]?
Its CL/F is 71.8 mL/min/kg.

What about the pIC50 [7] of the same molecule?
Its pIC50 is < 4.52.

And the pIC50 [1]?
The pIC50 was 7.87 to 8.12.

What about the AUC(0-t) [8] of the same molecule?
The AUC(0-t) was 1000 ng·h/mL.

And the inhibition at 30 µM [9]?
Its inhibition at 30 µM is 16.4%.

What about the inhibition at 3 µM [10] of the same molecule?
The inhibition at 3 µM was 11.2%.

What about the bioavailability [11] of the same molecule?
The bioavailability was 54.8%.

What about the Cmax [12] of the same molecule?
Its Cmax is 2340 ng/mL.

And the pIC50 [13]?
Its pIC50 is 8.29.

What about the AUC(0-t) [14] of the same molecule?
Its AUC(0-t) is 2190 ng·h/mL.

And the clearance [15]?
Its clearance is 42 mL/min/kg.

And the inhibition at 0.3 µM [16]?
Its inhibition at 0.3 µM is 1.9%.

What about the half-life [17] of the same molecule?
Its half-life is 2.91 h.

And the pIC50 [18]?
The pIC50 was 8.52.

What about the pIC50 [2] of the same molecule?
The pIC50 was 9.15 to 9.30.

And the Activity [19]?
The Activity was 113.2%.

What about the AUC at 240 h [20] of the same molecule?
The AUC at 240 h was 1490 ng·h/mL.

And the MRT last [21]?
Its MRT last is 0.5 h.

And the Cmax [22]?
Its Cmax is 540 ng/mL.

And the half-life [23]?
The half-life was 0.55 h.

And the Vz [24]?
The Vz was 17.82 L/kg.
